Data on two compounds can be found in US6054462A, “Intranasal antimigraine compositions” (Janssen Pharmaceutica, N.V., priority 1994, dated 2000).

In series [1] the test system is 5-HT1 -like receptors. The note with it: in vitro and in vivo animal experiments; cited from earlier work.
A short description of series [2]: clinical. Further details: species or system healthy volunteers. Conditions: human, in vivo. The procedure:
A double-blind, randomized, cross-over trial in healthy volunteers during four treatment days were set up. All volunteers (n=8) participated in the four sessions of the trial, in which the above formulation was tested. On each treatment day volunteers received a single intranasal administration of 1 mg of a formulation of (-)-(R)-N-[(3,4-dihydro-2H-1-benzopyran-2-yl)methyl]-N'-(1,4,5,6-tetrahydro-2-pyrimidinyl)-1,3-propanediamine dihydrochloride as described in example 1. Unidose nasal sprayers at a concentration of 10 mg/ml, which provided a volume of 100 μl per spray were used. The composition was administered to the volunteers as a single spray in one nostril. Blood was sampled over 24 hours for pharmacokinetic analysis. Venous 10 ml blood samples for drug analysis were taken at 0, 5, 10, 20, 30, 60, 90, 120, 240 and 360 minutes and 24 hours after drug administration. The blood samples were transferred to heparinized tubes and centrifuged within 30 minutes after collection. Separated plasma was transferred to polystyrene tubes adequately labelled with the trial number, subject number and initials, time and date of sampling.
Concentrations of (-)-(R)-N-[(3,4-dihydro-2H-1-benzopyran -2-yl)methyl]-N'-(1,4,5,6-tetrahydro-2-pyrimidinyl)-1,3-propanediamine dihydrochloride were determined by radio immunoassay. […]

The term bioavailability denotes the share of a dose that reaches the circulation, judged against a reference dose that is usually intravenous. A low value points to little systemic uptake.

Take `c1ccc2c(c1)CCC(CNCCCNC1=NCCCN1)O2` (stereo not drawn) [N-[(3,4-dihydro-2H-1-benzopyran-2-yl)methyl]-N'-(1,4,5,6-tetrahydro-2-pyrimidinyl)-1,3-propanediamine]: in series [1], the “arterial vasoconstrictor response arises through activation of 5-HT1 -like receptors” value is on record as “agonistic activation of 5-HT1 -like receptors” and the vasoconstrictory properties entry is listed as “highly vasoconstrictory properties”. `Cl.Cl.c1ccc2c(c1)CC[C@H](CNCCCNC1=NCCCN1)O2` [active ingredient, (-)-(R)-N-[(3,4-dihydro-2H-1-benzopyran-2-yl)methyl]-N'-(1,4,5,6-tetrahydro-2-pyrimidinyl)-1,3-propanediamine dihydrochloride] registered a bioavailability at 24 h in series [2] of roughly 35%.
